# Assay results: patent publication US8642623B2, “Vanilloid receptor ligand compounds, pharmaceutical compositions containing them, a method of producing them and the use thereof to treat pain and various other conditions” (Gruenenthal GmbH, priority 2007, dated 2014)
# What was measured:
# Assay type in all cases: cell-based
# [1] = target: T1, vanilloid receptor 1 (VR1/TRPV1) of the rat species (Rattus norvegicus, UniProt O35433); assay: FLIPR Ca2+ influx assay on rat dorsal root ganglia cells, capsaicin stimulus (Pharmacological method I); details: capsaicin 100 nM stimulus, Ki from IC50 by Cheng-Prusoff
# T1 construct: The spinal column is removed from decapitated rats; from tissue; host or cells: primary cells from rat dorsal root ganglia (DRG)
# Protocol: (§1) The agonistic or antagonistic action of the substances to be investigated on the vanilloid receptor 1 (VR1/TRPV1) of the rat species may be determined with the following assay. According to this assay, the influx of Ca^2+ through the receptor channel is quantified with the assistance of a Ca^2+-sensitive dye (type Fluo-4, Molecular Probes Europe BV, Leiden, Netherlands) in a Fluorescent Imaging Plate Reader (FLIPR, Molecular Devices, Sunnyvale, USA).
# Complete medium: 50 mL HAMS F12 Nutrient Mixture (Gibco Invitrogen GmbH, Karlsruhe, Germany) with 10 vol. % FCS (foetal calf serum, Gibco Invitrogen GmbH, Karlsruhe, Germany, heat-inactivated);
# Cell culture plate: poly-D-lysine-coated, black 96-hole plates with clear base (96 well black/clear plate, BD Biosciences, Heidelberg, Germany) are additionally coated with laminin (Gibco Invitrogen GmbH, Karlsruhe, Germany), by diluting laminin to a concentration of 100 μg/mL with PBS (Ca—Mg-free PBS, Gibco Invitrogen GmbH, Karlsruhe, Germany). Aliquots with a concentration of 100 μg/mL of laminin are taken and stored at −20° C. The aliquots are diluted with PBS in the ratio of 1:10 to 10 μg/mL of laminin and 50 μL of the solution is pipetted into each well of the cell culture plate. The cell culture plates are incubated for at least two hours at 37° C., the supernatant solution is aspirated and the wells are each washed twice with PBS. The coated cell culture plates are stored with supernatant PBS and this is only removed directly prior to introduction of the cells.
# The spinal column is removed from decapitated rats and this is placed directly in cold HBSS buffer (Hank's buffered saline solution, Gibco Invitrogen GmbH, Karlsruhe, Germany), i.e. located in an ice bath, combined with 1 vol. % (percent by volume) of an AA solution (antibiotic/antimycotic solution, PAA, Pasching, Austria). The spinal column is severed lengthwise and removed from the spinal canal together with fasciae. The dorsal root ganglia (DRGs) are then removed and in turn stored in cold HBSS buffer combined with 1 vol. % of an AA solution. The DRGs, from which blood residues and spinal nerves have been completely removed, are in each case transferred into 500 μL cold collagenase type 2 (PAA, Pasching, Austria) and incubated for 35 minutes at 37° C. After the addition of 2.5 vol. % trypsin (PAA, Pasching, Austria) incubation at 37° C. is continued for a further 10 minutes. After complete incubation, the enzyme solution is carefully pipetted off and the remaining DRGs are combined in each case with 500 μL of complete medium.
# The DRGs are in each case repeatedly suspended, drawn through cannulas no. 1, no. 12 and no. 16 by means of a syringe and transferred into 50 mL Falcon microtubes, these being filled to 15 mL with complete medium. The content of each Falcon microtube is in each case filtered through a 70 μm Falcon filter insert and centrifuged for 10 minutes at 1200 revolutions and room temperature. The resultant pellet is in each case redissolved in 250 μL of complete medium and the cell count is determined.
# The number of cells in the suspension is adjusted to 3×10^5 per mL and a 150 μL portion of this suspension is in each case placed in a well of the cell culture plates which have been coated as described above. The plates are left to stand in the incubator for two to three days at 37° C., 5 vol. % CO2 and 95% relative atmospheric humidity.
# The cells are then loaded with 2 μM Fluo-4 and 0.01 vol. % Pluronic F127 (Molecular Probes Europe BV, Leiden, Netherlands) in HBSS buffer (Hank's buffered saline solution, Gibco Invitrogen GmbH, Karlsruhe, Germany) for 30 min at 37° C., washed 3×with HBSS buffer and, after a further 15 minutes' incubation at room temperature, used for Ca^2+ measurement in the FLIPR assay. Ca^2+-dependent fluorescence is here measured before and after the addition of substances (λex=488 nm, λem=540 nm). […]
# [2] = target: vanilloid receptor 1 (VR1/TRPV1 receptor) (Homo sapiens, UniProt Q8NER1); assay: Human VR1/TRPV1 receptor inhibition after pH stimulus; details: for inhibition at 5 µM: compound 5 μM; for inhibition at 10 µM: compound 10 μM
# vanilloid receptor (VR1) = target: T2, vanilloid receptor (VR1) (Homo sapiens, UniProt Q8NER1); assay: FLIPR Ca2+ influx assay with CHO K1 cells transfected with the human VR1 gene, capsaicin stimulus (Pharmacological method II); details: for Ki / Ki (human) Capsaicin: capsaicin 100 nM stimulus, Ki from IC50 by Cheng-Prusoff
# T2 construct: expressed in transfected cells; host or cells: CHO K1 cells (ECACC), stably transfected
# Protocol: In addition, compounds according to the invention of the general formulae I, Ia, Ib, I′, I″, I′″ may be preferred which, in a FLIPR assay with CHO K1 cells which have been transfected with the human gene VR1, in a concentration of less than 2000 nM, preferably of less than 1000 nM, particularly preferably of less then 300 nM, very particularly preferably of less than 100 nM, still more preferably of less than 75 nM, further preferably of less than 50 nM, most preferably of less than 10 nM, bring about 50% displacement of capsaicin which is present in a concentration of 100 nM.
# In this FLIPR assay, the influx of Ca^2+ is quantified with the assistance of a Ca^2+-sensitive dye (type Fluo-4, Molecular Probes Europe BV, Leiden, Netherlands) in a Fluorescent Imaging Plate Reader (FLIPR, Molecular Devices, Sunnyvale, USA) as described below.
# as §1, with “(VR1)” for “1 (VR1/TRPV1) of the rat species”, “may also” for “may”, “the” for “the receptor”
# Chinese hamster ovary cells (CHO K1 cells, European Collection of Cell Cultures (ECACC), Great Britain) are stably transfected with the VR1 gene. For functional investigations, these cells are plated out onto poly-D-lysine-coated, black 96-hole plates with a clear base (BD Biosciences, Heidelberg, Germany) at a density of 25,000 cells/hole. The cells are incubated overnight at 37° C. and 5% CO2 in a culture medium (Ham's Nutrient Mixture F12, 10 vol. % FCS (foetal calf serum), 18 μg/mL L-proline). On the following day, the cells are incubated with Fluo-4 (Fluo-4 2 μM, Pluronic F127 0.01 vol. %, Molecular Probes in HBSS (Hank's buffered saline solution), Gibco Invitrogen GmbH, Karlsruhe, Germany) for 30 minutes at 37° C. The plates are then washed 3 times with HBSS buffer and, after a further 15 minutes' incubation at room temperature, used for Ca^2+ measurement in the FLIPR. Ca^2+-dependent fluorescence is here measured before and after the addition of the substances to be investigated (wavelength λex=488 nm, λem=540 nm). Quantification proceeds by measuring the highest fluorescence intensity (FC, fluorescence counts) over time.
# The FLIPR protocol consists of 2 additions of substance. The substances to be tested (10 μM) are firstly pipetted onto the cells and Ca^2+ influx is compared with the control (capsaicin 10 μM) (% activation relative to the Ca^2+ signal after addition of 10 μM of capsaicin). After 5 minutes' incubation, 100 nM of capsaicin are added and the influx of Ca^2+ is likewise determined.
# The percentage inhibition in comparison with the maximum achievable inhibition with 10 μM capsaicin is calculated.
# On the basis of the percentage displacement by different concentrations of the compounds to be tested of the general formula I, IC50 inhibition concentrations which bring about 50% displacement of capsaicin were calculated. Ki values for the test substances were obtained by conversion using the Cheng-Prusoff equation (Cheng, Prusoff; Biochem. Pharmacol. 22, 3099-3108, 1973).
# T1 sequence (O35433 whole entry): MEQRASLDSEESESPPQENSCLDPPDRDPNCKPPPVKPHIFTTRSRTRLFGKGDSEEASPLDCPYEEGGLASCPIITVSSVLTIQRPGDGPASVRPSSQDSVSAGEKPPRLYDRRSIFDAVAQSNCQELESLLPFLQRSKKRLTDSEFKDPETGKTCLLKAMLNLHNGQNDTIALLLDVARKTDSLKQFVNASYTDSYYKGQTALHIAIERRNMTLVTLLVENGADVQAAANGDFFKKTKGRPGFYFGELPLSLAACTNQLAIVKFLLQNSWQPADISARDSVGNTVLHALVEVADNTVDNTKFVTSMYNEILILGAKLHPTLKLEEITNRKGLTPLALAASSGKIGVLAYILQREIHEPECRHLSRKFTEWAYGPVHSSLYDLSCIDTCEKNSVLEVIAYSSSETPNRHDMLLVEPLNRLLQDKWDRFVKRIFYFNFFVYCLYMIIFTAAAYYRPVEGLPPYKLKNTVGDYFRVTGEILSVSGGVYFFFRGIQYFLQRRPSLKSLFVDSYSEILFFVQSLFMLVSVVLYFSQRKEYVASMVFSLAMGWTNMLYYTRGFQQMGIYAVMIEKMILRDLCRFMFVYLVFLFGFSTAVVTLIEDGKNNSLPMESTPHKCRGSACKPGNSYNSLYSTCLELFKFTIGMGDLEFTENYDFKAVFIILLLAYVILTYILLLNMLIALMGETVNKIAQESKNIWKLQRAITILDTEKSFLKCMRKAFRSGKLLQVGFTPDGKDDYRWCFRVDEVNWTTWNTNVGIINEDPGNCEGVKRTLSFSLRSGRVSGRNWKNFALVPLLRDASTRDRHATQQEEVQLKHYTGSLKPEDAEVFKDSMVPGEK
# Sequence of vanilloid receptor 1 (VR1/TRPV1 receptor) (Q8NER1 whole entry): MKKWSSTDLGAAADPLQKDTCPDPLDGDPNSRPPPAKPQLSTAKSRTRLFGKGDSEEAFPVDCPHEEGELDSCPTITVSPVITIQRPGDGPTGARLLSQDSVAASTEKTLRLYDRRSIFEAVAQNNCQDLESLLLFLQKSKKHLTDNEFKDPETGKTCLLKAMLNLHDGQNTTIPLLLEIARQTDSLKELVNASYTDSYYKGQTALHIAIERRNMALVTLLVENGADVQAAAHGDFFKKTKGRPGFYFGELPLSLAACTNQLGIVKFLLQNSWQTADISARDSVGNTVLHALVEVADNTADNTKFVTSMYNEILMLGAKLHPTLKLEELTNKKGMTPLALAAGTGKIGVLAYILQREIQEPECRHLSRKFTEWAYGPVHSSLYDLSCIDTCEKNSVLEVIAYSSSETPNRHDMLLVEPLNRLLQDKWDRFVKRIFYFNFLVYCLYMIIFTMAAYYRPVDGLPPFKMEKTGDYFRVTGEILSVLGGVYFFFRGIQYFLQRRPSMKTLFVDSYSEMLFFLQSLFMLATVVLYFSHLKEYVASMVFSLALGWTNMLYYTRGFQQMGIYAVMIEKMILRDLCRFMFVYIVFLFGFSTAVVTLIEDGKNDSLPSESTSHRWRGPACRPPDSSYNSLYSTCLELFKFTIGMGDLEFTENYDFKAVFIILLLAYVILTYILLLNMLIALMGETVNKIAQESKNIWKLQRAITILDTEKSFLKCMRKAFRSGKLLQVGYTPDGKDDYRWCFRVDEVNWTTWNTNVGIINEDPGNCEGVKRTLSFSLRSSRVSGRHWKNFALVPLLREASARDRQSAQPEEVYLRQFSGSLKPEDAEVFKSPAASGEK
# T2 sequence (Q8NER1 whole entry): as above
SMILES,Ki [1] [nM],IC50 [2] [nM],Ki (vanilloid receptor (VR1)) [nM],IC50 (human) after pH stimulus [2],"inhibition at 0.1 µM (vanilloid receptor (VR1); CHO-K1, capsaicin stimulus, compound 0.1 μM) [%]","inhibition at 1 µM (vanilloid receptor (VR1); CHO-K1, capsaicin stimulus, compound 1 μM) [%]","inhibition at 5 µM (vanilloid receptor (VR1); CHO-K1, capsaicin stimulus, compound 5 μM) [%]",inhibition at 5 µM [2] [%],inhibition at 10 µM [2] [%],Ki (human) Capsaicin (vanilloid receptor (VR1))
"CC(=O)N(c1ccc(C(C)C(=O)NCc2ccc(C(F)(F)F)nc2N2CCC(C)CC2)cc1F)S(C)(=O)=O (stereo not shown) [Example 2, 2-(3-fluoro-4-(N-(methylsulfonyl)acetamido)phenyl)-N-((2-(4-methylpiperidin-1-yl)-6-(trifluoromethyl)pyridin-3-yl)methyl)propanamide]",2.2,947,11.9,–,–,–,–,–,–,–
"CC(C(=O)NCc1ccc(C(C)(C)C)nc1SC1CCCCC1)c1ccc(N(C)S(C)(=O)=O)c(F)c1 (stereo not shown) [Example 11, N-((6-tert.-butyl-2-(cyclohexylthio)pyridin-3-yl)methyl)-2-(3-fluoro-4-(N-methylmethylsulfonamido)phenyl)propanamide]",16.8,–,–,ne,0,33,56,–,–,–
"CCN(c1ccc([C@H](C)C(=O)NCc2ccc(C(C)(C)C)cc2)cc1F)S(C)(=O)=O [Example 6, (S)—N-(4-tert.-butylbenzyl)-2-(4-(N-ethylmethylsulfonamido)-3-fluorophenyl)propanamide]",66.8,–,–,–,–,–,–,0,21,Ne
"CC1CCN(c2nc(C(C)(C)C)ccc2CNC(=O)C(C)c2ccc(N(C)S(C)(=O)=O)c(F)c2)CC1 (stereo not shown) [Example 10, N-((6-tert.-butyl-2-(4-methylpiperidin-1-yl)pyridin-3-yl)methyl)-2-(3-fluoro-4-(N-methylmethylsulfonamido)phenyl)propanamide]",2.8,–,27.7,–,–,–,–,0,11,–
"CCN(c1ccc(C(C)C(=O)NCc2ccc(C(F)(F)F)nc2N2CCC(C)CC2)cc1F)S(C)(=O)=O (stereo not shown) [Example 9, 2-(4-(N-ethylmethylsulfonamido)-3-fluorophenyl)-N-((2-(4-methylpiperidin-1-yl)-6-(trifluoromethyl)pyridin-3-yl)methyl)propanamide]",63.8,–,22.7,–,–,–,–,11,46,–
"CC(C(=O)NCc1ccc(C(F)(F)F)cc1SC1CCCCC1)c1ccc(N(C)S(C)(=O)=O)c(F)c1 (stereo not shown) [Example 13, N-(2-(cyclohexylthio)-4-(trifluoromethyl)benzyl)-2-(3-fluoro-4-(N-methylmethylsulfonamido)phenyl)propanamide]",5.2,–,33.1,ne,–,–,–,–,–,–
"CC(C(=O)NCc1ccc(C(F)(F)F)nc1SC1CCCCC1)c1ccc(N(C)S(C)(=O)=O)c(F)c1 (stereo not shown) [Example 7, N-((2-(cyclohexylthio)-6-(trifluoromethyl)pyridin-3-yl)methyl)-2-(3-fluoro-4-(N-methylmethylsulfonamido)phenyl)propanamide]",30.8,–,48.1,–,–,–,–,0,20,–
"CC(C(=O)NCc1ccc(C(C)(C)C)cc1)c1ccc(N(C)S(C)(=O)=O)c(F)c1 (stereo not shown) [Example 4, N-(4-tert.-butylbenzyl)-2-(3-fluoro-4-(N-methylmethylsulfonamido)phenyl)propanamide]",50.4,–,–,–,–,–,–,0,22,Ne
"CC1CCN(c2cc(C(F)(F)F)ccc2CNC(=O)C(C)c2ccc(N(C)S(C)(=O)=O)c(F)c2)CC1 (stereo not shown) [Example 12, 2-(3-fluoro-4-(N-methylmethylsulfonamido)phenyl)-N-(2-(4-methylpiperidin-1-yl)-4-(trifluoromethyl)benzyl)propanamide]",5,–,7.8,–,–,–,–,0,43,–
"CC1CCN(c2nc(C(F)(F)F)ccc2CNC(=O)C(C)c2ccc(N(C)S(C)(=O)=O)c(F)c2)CC1 (stereo not shown) [Example 3, 2-(3-fluoro-4-(N-methylmethylsulfonamido)phenyl)-N-((2-(4-methylpiperidin-1-yl)-6-(trifluoromethyl)pyridin-3-yl)methyl)propanamide]",20,–,55.5,–,–,–,–,8,16,–
"CCC(=O)N(c1ccccc1)C1CCN(c2nc(C(F)(F)F)ccc2CNC(=O)C(C)c2ccc(N(C(=O)CC)S(C)(=O)=O)c(F)c2)CC1 (stereo not shown) [Example 1, N-(2-fluoro-4-(1-oxo-1-((2-(4-(N-phenylpropionamido)piperidin-1-yl)-6-(trifluoromethyl)pyridin-3-yl)methylamino)propan-2-yl)phenyl)-N-(methylsulfonyl)propionamide]",19.5,525,69.1,–,–,–,–,–,–,–
"CC1CCN(c2cc(C(C)(C)C)ccc2CNC(=O)C(C)c2ccc(N(C)S(C)(=O)=O)c(F)c2)CC1 (stereo not shown) [Example 14, N-(4-tert.-butyl-2-(4-methylpiperidin-1-yl)benzyl)-2-(3-fluoro-4-(N-methylmethylsulfonamido)phenyl)propanamide]",3,–,13.1,–,–,–,–,9,43,–
